What was measured:
[1] = Single dose i.p. toxicity in mice; assay type: in vivo; conditions: daily weight and behavior
Description: (§1) Initially, we established that 10 had no observed toxicity in mice up to 50 mg/kg a single dose administered i.p. Toxicity was assessed by daily weight measurements and mouse behavior compared to non-injected mice. Next, we established tumor xenografts by injecting A549 cells subcutaneously into two groups of nude athymic mice (6 animals per group). The first group was injected only with DMSO control. The second group of animals received three i.p. doses of analog 10 (20 mg/kg) on the 3rd, 5th and 7th day after the initial tumor challenge. Tumor growth was monitored over a period of five weeks. The tumor grew rapidly in the control mice population and reached an average size of 731 mm^3 at the end of 4 weeks. […] The average tumor size for this population was 308 mm^3 after 4 weeks.

[2] = system: A549 tumor xenografts; assay: A549 tumor xenograft growth in nude athymic mice; assay type: in vivo; conditions: 20 mg/kg i.p. on 3rd, 5th and 7th day
Description: as §1
A population of 22 nude athymic mice was injected subcutaneously with A549 cells (10^7 cells in 100 μl PBS each). A subpopulation of 12 mice was injected with analog 10 in 1% DMSO at 20 mg/kg on the 3rd, 5th and 7th day following treatment with A549 cells. A control population of 10 mice was injected with 1% DMSO. Tumor growth was measured over 5 weeks.

[3] = system: MDA-MB-435; assay: NCI 60 cell line single dose screen; assay type: cell-based, human; conditions: MDA-MB-435 (Melanoma), 10 micromolar, 48 h
Text: (§2) Analog 10 was screened utilizing 60 different human tumor cell lines, representing leukemia, melanoma and cancers of the lung, colon, brain, ovary, breast, prostate, and kidney in order to show selective growth inhibition or cell killing of particular tumor cell lines. This screen is unique in that the complexity of a 60 cell line dose response produced by a given compound results in a biological response pattern which can be utilized in pattern recognition algorithms (COMPARE program. See: http://dtp.nci.nih.gov/docs/compare/compare.html). Using these algorithms, it is possible to assign a putative mechanism of action to a test compound, or to determine that the response pattern is unique and not similar to that of any of the standard prototype compounds included in the NCI database. In addition, following characterization of various cellular molecular targets in the 60 cell lines, it may be possible to select compounds most likely to interact with a specific molecular target.
(§3) The screening is a two-stage process, beginning with the evaluation of the compound against the 60 cell lines at a single dose of 10 uM.
(§4) The human tumor cell lines of the cancer screening panel are grown in RPMI 1640 medium containing 5% fetal bovine serum and 2 mM L-glutamine. For a typical screening experiment, cells are inoculated into 96 well microtiter plates in 100 μL at plating densities ranging from 5,000 to 40,000 cells/well depending on the doubling time of individual cell lines. After cell inoculation, the microtiter plates are incubated at 37° C., 5% CO2, 95% air and 100% relative humidity for 24 h prior to addition of experimental drug.
(§5) After 24 h, two plates of each cell line are fixed in situ with TCA, to represent a measurement of the cell population for each cell line at the time of drug addition (Tz). Experimental drugs are solubilized in dimethyl sulfoxide at 400-fold the desired final maximum test concentration and stored frozen prior to use. At the time of drug addition, an aliquot of frozen concentrate is thawed and diluted to twice the desired final maximum test concentration with complete medium containing 50 μg/ml gentamicin.
(§6) Following drug addition, the plates are incubated for an additional 48 h at 37° C., 5% CO2, 95% air, and 100% relative humidity. For adherent cells, the assay is terminated by the addition of cold TCA. Cells are fixed in situ by the gentle addition of […] of cold 50% (w/v) TCA (final concentration, 10% TCA) and incubated for 60 minutes at 4° C. The supernatant is discarded, and the plates are washed five times with tap water and air dried. Sulforhodamine B (SRB) solution (100 μl) at 0.4% (w/v) in 1% acetic acid is added to each well, and plates are incubated for 10 minutes at room temperature. After staining, unbound dye is removed by washing five times with 1% acetic acid and the plates are air dried. Bound stain is subsequently solubilized with 10 mM trizma base, and the absorbance is read on an automated plate reader at a wavelength of 515 nm. For suspension cells, the methodology is the same except that the assay is terminated by fixing settled cells at the bottom of the wells by gently adding 50 μl of 80% TCA (final concentration, 16% TCA). Using the absorbance measurements [time zero, (Tz), control growth, (C), and test growth in the presence of drug (Ti)], the percentage growth is calculated.

[4] = system: SW-620; assay: NCI 60 cell line single dose screen; assay type: cell-based, human; conditions: SW-620 (Colon Cancer), 10 micromolar, 48 h
Text: as §2, §3, §4, §5, §6

[5] = system: UO-31; assay: NCI 60 cell line single dose screen; assay type: cell-based, human; conditions: UO-31 (Renal Cancer), 10 micromolar, 48 h
Text: as §2, §3, §4, §5, §6

[6] = system: HL-60(TB); assay: NCI 60 cell line single dose screen; assay type: cell-based, human; conditions: HL-60(TB) (Leukemia), 10 micromolar, 48 h
[7] = system: F-actin in DU145 prostate cancer cell line; assay: F-actin depolymerization in DU145 prostate cancer cell line; assay type: cell-based, human
Text: We also examined the ability of 10 to depolymerize F-actin in live cells. The actin cytoskeleton can be readily visualized by fluorescent microscopy following Alexa Fluor 488 phalloidin staining.

[8] = target: T1, G-actin (Oryctolagus cuniculus, UniProt P68135); assay: Isothermal titration calorimetry, binding to monomeric actin; parameters: species or system rabbit; conditions: isothermal titration calorimetry, 25° C.; read-out: Kd
T1 construct: Actin was purified from rabbit muscle acetone powder; tissue Pel-Freez Biologicals (acetone powder); host or cells: rabbit muscle acetone powder
Description: Isothermal Titration Calorimetry. A solution of rabbit skeletal muscle actin (5-10 μM) was titrated with bistramide A or its analog (50-100 μM) at 25° C. in buffer containing 2 mM Tris HCl, pH 8.0, 0.2 mM CaCl2, 0.01% NaN3, 0.2 mM ATP, 0.2 mM 2-mercaptoethanol. Dissociation constants were calculated from the binding curve using Origin analytical software (OriginLab) with the binding model involving a single set of identical sites

[9] = target: filamentous actin (Oryctolagus cuniculus, UniProt P68135); assay: TIRF microscopy of Oregon green-labeled actin filaments with analog 10; assay type: biochemical; conditions: 1.5 μM solution
Description: Encouraged by the initially observed potent G-actin binding affinity of 10, we next employed time-lapse total internal reflection fluorescence (TIRF) microscopy to examine the effects of this compound on depolymerization of filamentous actin in vitro. We initially assembled individual actin filaments by elongating them from a pool of 1.0 μM Mg-ATP-actin monomers supplemented with a trace of […] Mg-ATP-actin monomers labeled with Oregon green for visualization. The resulting filaments were incubated with either a solution of buffer or a 1.5 μM solution of 10 and imaged with TIRF microscopy. […] Similar to our previous observations, the mechanism of actin depolymerization by 10 entailed formation of multiple filaments breaks, which in turn created subsequent points for actin disassembly.

Q: What does the source list for COCCC(=O)NC[C@H](O)[C@H](C)C(=O)NCCC[C@H]1O[C@@]2(CCC[C@@H](CC[C@H](C)/C=C(\C)[C@H](C)O)O2)CCC1C (some centres unmarked) [Analog 10]?
A: dose with no observed toxicity [1]: up to 50 mg/kg; drug-based cytotoxicity [2]: no significant drug-based cytotoxicity was observed; tumor growth [2]: substantially inhibited; average tumor size ([2]; after 4 weeks): 308 mm^3; Growth Percent [3]: 72.88%; Growth Percent [4]: 45.90%; Growth Percent [5]: 22.67%; Growth Percent [6]: 51.51%; F-actin depolymerization in DU145 cells [7]: A similar effect of 10 on F-actin depolymerization was also observed; Kd [8]: 9 nM; effect on F-actin filaments [9]: rapid filament disassembly

— patent US8350062B2, “Synthesis and anticancer activity of new actin-targeting small-molecule agents” (priority 2009, dated 2013)
